In patent publication US9073892B2, “Indazolyl triazol derivatives” (Merck Serono S.A., priority 2010, dated 2015):
Counter-ions that a name gives are not always drawn.

These molecules were tested on T1, IRAK1/4 human (assay: IRAK1/4 phosphorylation IC50 (enzymatic assay, table 2)). Conditions: human IRAK1/4 phosphorylation.
T1 construct: fused on or other part: His tag and TEV cleavage site at the N-terminus
Format: biochemical
Procedure, shortened: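 Inhibition values are IC50s. They come from 384-well reactions in which His-TEV-tagged human IRAK-1 or IRAK-4 (the latter with STK1-biotin peptide) met ATP and compounds in DMSO at 20 µM to 1 nM. The buffer was 50 mM Hepes pH7.0 containing MgCl2, DTT, EGTA and BSA, and incubation lasted 2 or 3 hours.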

Row | SMILES | IC50 [nM]
1 | CN1C2CCC1CC(n1cc(-n3cc(-c4n[nH]c5ccccc45)nn3)cn1)C2 (stereo not drawn) [Example 140, 3-{1-[1-(8-methyl-8-azabicyclo[3.2.1]oct-3-yl)-1H-pyrazol-4-yl]-1H-1,2,3-triazol-4-yl}-1H-indazole] | < 100
2 | OC(CN1[C@@H]2CC[C@H]1C[C@H](c1ccc(-n3cc(-c4n[nH]c5ccccc45)nn3)cc1)C2)C(F)(F)F (stereo partly drawn) [Example 281] | 100 to 1000
3 | CN1[C@@H]2CC[C@H]1C[C@@H](c1ccc(-n3cc(-c4n[nH]c5cc(F)ccc45)nn3)cc1)C2 [Example 253] | < 100
4 | CN1C2CCC1CC(n1cc(-n3cc(-c4n[nH]c5ccc(F)cc45)nn3)cn1)C2 (stereo not drawn) [Example 226] | 100 to 1000
5 | Cn1cc(-c2ccc3c(-c4cn(-c5ccc(C(=O)N6CCOCC6)cc5)nn4)n[nH]c3c2)cn1 [Example 209] | 1000 to 5000
6 | O=C(c1ccc(-n2cc(-c3n[nH]c4ccccc34)nn2)c(F)c1)N1CCOCC1 [Example 102, 3-{1-[2-fluoro-4-(morpholin-4-ylcarbonyl)phenyl]-1H-1,2,3-triazol-4-yl}-1H-indazole] | 1000 to 5000
7 | O=C(CN1CCOCC1)NCc1ccc(-n2cc(-c3n[nH]c4ccccc34)nn2)cc1 [Example 16, N-{4-[4-(1H-indazol-3-yl)-1H-1,2,3-triazol-1-yl]benzyl}-2-morpholin-4-ylacetamide] | 1000 to 5000
8 | COCC#Cc1ccc2c(-c3cn(-c4ccc(C(=O)N5CCOCC5)cc4)nn3)n[nH]c2c1 [Example 213] | 1000 to 5000
9 | O=C(c1ccc(-n2cc(-c3n[nH]c4cc(C#CCCO)ccc34)nn2)cc1)N1CCOCC1 [Example 215] | 1000 to 5000
10 | O=C(NCCCN1CCCCC1)c1cccc(-n2cc(-c3n[nH]c4ccccc34)nn2)c1 [Example 63, 3-[4-(1H-indazol-3-yl)-1H-1,2,3-triazol-1-yl]-N-(3-piperidin-1-ylpropyl)benzamide] | 1000 to 5000
11 | NCC#Cc1ccc2c(-c3cn(-c4ccc(C(=O)N5CCOCC5)cc4)nn3)n[nH]c2c1 [Example 219] | 1000 to 5000
12 | O=C(NCCCN1CCCC1=O)c1ccc(-n2cc(-c3n[nH]c4ccccc34)nn2)cc1 [Example 61, 4-[4-(1H-indazol-3-yl)-1H-1,2,3-triazol-1-yl]-N-[3-(2-oxopyrrolidin-1-yl)propyl]benzamide] | 1000 to 5000
13 | CC(C)c1ccc(-n2cc(-c3n[nH]c4ccccc34)nn2)cc1 [Example 232] | 1000 to 5000
14 | CN1C2CCC1CC(n1cc(-n3cc(-c4n[nH]c5cc(F)ccc45)nn3)cn1)C2 (stereo not drawn) [Example 229] | < 100
15 | c1ccc2c(-c3cn(-c4ccc(C5CC6CCC(C5)N6C5COC5)cc4)nn3)n[nH]c2c1 (stereo not drawn) [Example 249] | 100 to 1000
16 | O=C(CCc1cccc(-n2cc(-c3n[nH]c4ccccc34)nn2)c1)N1CCCC1 [Example 87, 3-{1-[3-(3-oxo-3-pyrrolidin-1-ylpropyl)phenyl]-1H-1,2,3-triazol-4-yl}-1H-indazole] | 1000 to 5000
17 | O=C(NCc1ccc(-n2cc(-c3n[nH]c4ccccc34)nn2)cc1)C1CCOCC1 [Example 17, N-{4-[4-(1H-indazol-3-yl)-1H-1,2,3-triazol-1-yl]benzyl}tetrahydro-2H-pyran-4-carboxamide] | 1000 to 5000
18 | CN1CCN(C(=O)Cc2ccc(-n3cc(-c4n[nH]c5ccccc45)nn3)cc2)CC1 [Example 70] | 100 to 1000
19 | O=C(c1cccc(-n2cc(-c3n[nH]c4ccccc34)nn2)c1)N1CCCCC1 [Example 67, 3-{1-[3-(piperidin-1-ylcarbonyl)phenyl]-1H-1,2,3-triazol-4-yl}-1H-indazole] | 1000 to 5000
20 | CCC(O)CNC(=O)c1ccc(-n2cc(-c3n[nH]c4ccccc34)nn2)cc1 (stereo not drawn) [Example 119, N-(2-hydroxybutyl)-4-[4-(1H-indazol-3-yl)-1H-1,2,3-triazol-1-yl]benzamide] | 100 to 1000
21 | CCC1CCCCN1CCCNC(=O)c1ccc(-n2cc(-c3n[nH]c4ccccc34)nn2)cc1 (stereo not drawn) [Example 59, N-[3-(2-ethylpiperidin-1-yl)propyl]-4-[4-(1H-indazol-3-yl)-1H-1,2,3-triazol-1-yl]benzamide] | 100 to 1000
22 | CCC(O)CCc1ccc2c(-c3cn(-c4ccc(C(=O)N5CCOCC5)cc4)nn3)n[nH]c2c1 (stereo not drawn) [Example 218] | 1000 to 5000
23 | CC(C)NC(=O)c1cccc(-n2cc(-c3n[nH]c4ccccc34)nn2)c1 [Example 68, 3-[4-(1H-indazol-3-yl)-1H-1,2,3-triazol-1-yl]-N-isopropylbenzamide] | 1000 to 5000
24 | CC(=O)Nc1ccc(-c2ccc(-n3cc(-c4n[nH]c5ccccc45)nn3)cc2)cn1 [Example 291] | 100 to 1000
25 | c1ccc2c(-c3cn(-c4ccc([C@@H]5C[C@H]6CC[C@@H](C5)N6)cc4)nn3)n[nH]c2c1 [Example 255] | < 100
26 | Fc1ccc2c(-c3cn(-c4ccc(CN5CC6CCC(C5)O6)cc4)nn3)n[nH]c2c1 [Example 282] | 1000 to 5000

Second part, the molecule after the results:

Row | IC50 [nM] | SMILES
27 | 100 to 1000 | FC(F)(F)c1ccc2c(-c3cn(-c4ccc(C5CCNCC5)cc4)nn3)n[nH]c2c1 [Example 299]
28 | 100 to 1000 | O=C(c1ccc(-n2cc(-c3n[nH]c4ccc(N5CCOC(CCO)C5)cc34)nn2)cc1)N1CCOCC1 (stereo not drawn) [Example 264]
29 | 100 to 1000 | c1ccc2c(-c3cn(-c4ccc(CN5CCCCC5)cc4)nn3)n[nH]c2c1 [Example 247]
30 | < 100 | O=c1ccc(-c2cccc(O)c2)nn1Cc1ccc2[nH]nc(-c3cn(-c4ccc(CN5CCOCC5)cc4)nn3)c2c1 [Example 200]
31 | 100 to 1000 | O=C(c1ccc(-n2cc(-c3n[nH]c4ccc(CN5CC(O)C5)cc34)nn2)cc1)N1CCOCC1 [Example 292]
32 | 100 to 1000 | O=C(c1ccc(-n2cc(-c3n[nH]c4ccc(N5CCN6CCCC6C5)cc34)nn2)cc1)N1CCOCC1 (stereo not drawn) [Example 250]
33 | 100 to 1000 | COc1ccc2c(-c3cn(-c4ccc(C(=O)N5CCOCC5)cc4)nn3)n[nH]c2c1 [Example 195]
34 | 100 to 1000 | O=C(Cc1ccc(-n2cc(-c3n[nH]c4ccccc34)nn2)cc1)N1CCOCC1 [Example 18, 3-{1-[4-(2-morpholin-4-yl-2-oxoethyl)phenyl]-1H-1,2,3-triazol-4-yl}-1H-indazole]
35 | 100 to 1000 | CCOCC1CCCN(C(=O)c2ccc(-n3cc(-c4n[nH]c5ccccc45)nn3)cc2)C1 (stereo not drawn) [Example 164]
36 | 100 to 1000 | O=c1ccc(-c2ccc(O)cc2)nn1Cc1ccc2[nH]nc(-c3cn(-c4ccc(CN5CCOCC5)cc4)nn3)c2c1 [Example 199]
37 | 100 to 1000 | O=C(Nc1cnn(CCc2ccncc2)c1)c1ccc(-n2cc(-c3n[nH]c4ccccc34)nn2)cc1 [Example 176]
38 | 100 to 1000 | O=C(NCCCN1CCOCC1)c1cccc(-n2cc(-c3n[nH]c4ccccc34)nn2)c1 [Example 58, 3-[4-(1H-indazol-3-yl)-1H-1,2,3-triazol-1-yl]-N-(3-morpholin-4-ylpropyl)benzamide]
39 | 100 to 1000 | C=C(C)c1ccc2c(-c3cn(-c4ccc(C(=O)N5CCOCC5)cc4)nn3)n[nH]c2c1 [Example 201]
40 | 100 to 1000 | CN(C)S(=O)(=O)c1ccc(-n2cc(-c3n[nH]c4ccccc34)nn2)cc1 [Example 241]
41 | < 100 | COc1cc(-n2cc(-c3n[nH]c4ccccc34)nn2)ccc1C1CCNCC1 [Example 268]
42 | 100 to 1000 | FCCN1CCC(c2ccc(-n3cc(-c4n[nH]c5ccccc45)nn3)cc2)CC1 [Example 133, 3-(1-{4-[1-(2-fluoroethyl)piperidin-4-yl]phenyl}-1H-1,2,3-triazol-4-yl)-1H-indazole]
43 | 100 to 1000 | O=C(c1ccc(-n2cc(-c3n[nH]c4cc(NCCO)ccc34)nn2)cc1)N1CCOCC1 [Example 244]

Row | IC50 [nM] | SMILES
44 | 100 to 1000 | CN(C(=O)c1ccc(-n2cc(-c3n[nH]c4ccccc34)nn2)cc1)C1CCOCC1 [Example 171]
45 | 100 to 1000 | Nc1ccc(-c2ccc(-n3cc(-c4n[nH]c5ccccc45)nn3)cc2)cn1 [Example 258]
46 | 100 to 1000 | CC1(C)CN(C(=O)c2ccc(-n3cc(-c4n[nH]c5ccccc45)nn3)cc2)CCO1 [Example 162]
47 | 100 to 1000 | O=C(NC1CCC(O)CC1)c1ccc2[nH]nc(-c3cn(-c4ccc(CN5CCOCC5)cc4)nn3)c2c1 (stereo not drawn) [Example 231]
48 | 100 to 1000 | O=C(c1ccc(-n2cc(-c3n[nH]c4ccc(Cl)cc34)nn2)cc1)N1CCOCC1 [Example 193]
49 | 100 to 1000 | O=C(c1ccc(-n2cc(-c3n[nH]c4ccc(NCC5CCOCC5)cc34)nn2)cc1)N1CCOCC1 [Example 248]
50 | 100 to 1000 | Cc1ccc2c(-c3cn(-c4ccc(CN5CCOC(C)(C)C5)cc4)nn3)n[nH]c2c1 [Example 279]
51 | 100 to 1000 | Cc1cnccc1-c1ccc(-n2cc(-c3n[nH]c4ccccc34)nn2)cc1 [Example 290]
52 | < 100 | O=C(NCc1cccc(O)c1)c1ccc2[nH]nc(-c3cn(-c4ccc(CN5CCOCC5)cc4)nn3)c2c1 [Example 230]
53 | 100 to 1000 | OC1CNCCC1c1ccc(-n2cc(-c3n[nH]c4ccccc34)nn2)cc1 (stereo not drawn) [Example 137, 4-{4-[4-(1H-indazol-3-yl)-1H-1,2,3-triazol-1-yl]phenyl}piperidin-3-ol hydrochloride]
54 | 100 to 1000 | O=C(c1ccc(-n2cc(-c3n[nH]c4cc(Br)ccc34)nn2)cc1)N1CCOCC1 [Example 208]
55 | 100 to 1000 | O=C(c1ccc(-n2cc(-c3n[nH]c4cc(F)ccc34)nn2)cc1)N1CCOCC1 [Example 194]
56 | 100 to 1000 | CC1CCCCN1CCCNC(=O)c1ccc(-n2cc(-c3n[nH]c4ccccc34)nn2)cc1 (stereo not drawn) [Example 56]
57 | 100 to 1000 | Fc1ccc2c(-c3cn(-c4ccc(C5CCN(CCC(F)(F)F)CC5)cc4)nn3)n[nH]c2c1 [Example 135, 6-fluoro-3-(1-{4-[1-(3,3,3-trifluoropropyl)piperidin-4-yl]phenyl}-1H-1,2,3-triazol-4-yl)-1H-indazole]
58 | 100 to 1000 | COC/C=C/c1ccc2c(-c3cn(-c4ccc(C(=O)N5CCOCC5)cc4)nn3)n[nH]c2c1 [Example 212]
59 | 100 to 1000 | CN(C)C1CCN(C(=O)c2ccc(-n3cc(-c4n[nH]c5ccc(C6CCCCC6)cc45)nn3)cc2)CC1 [Example 179]
60 | 100 to 1000 | O=C1C[C@@H](OCc2ccc3[nH]nc(-c4cn(-c5ccc(C(=O)N6CCOCC6)cc5)nn4)c3c2)CO1 [Example 276]
